In brackets after ≈: the same amount, converted by molar mass.
Key:
[1] = tested on: Aeromonas hydrophila OCC 778; assay: MIC in Nutrient Broth No. 2; assay type: cell-based; conditions: Nutrient Broth No. 2
Description: (§1) Bacteria species as indicated in Table 1 were incubated for approximately 24 hours at 37° C.
(§2) The tests were repeated with the addition of inducers. Methyl glycoside was the main inducer used, but other suitable inducers include isopropyl-β-D-thiogalactopyranoside, p-nitrophenyl-α-L-arabinopyranoside and p-nitrophenyl-β-D-xylopyranoside. Concentration of inducer in all cases was 100 μg/ml.

[2] = tested on: Bacillus cereus ATCC 14579; assay: MIC in Nutrient Broth No. 2; assay type: cell-based; conditions: Nutrient Broth No. 2
Description: as §1, §2

[3] = tested on: Bacillus subtilis NCTC 10073; assay: MIC in Nutrient Broth No. 2; assay type: cell-based; conditions: Nutrient Broth No. 2
Description: as §1, §2

[4] = tested on: Citrobacter freundii OCC 851; assay: MIC in Nutrient Broth No. 2; assay type: cell-based; conditions: Nutrient Broth No. 2
Description: as §1, §2

[5] = tested on: Enterobacter aerogenes ATCC 13048; assay: MIC in Nutrient Broth No. 2; assay type: cell-based; conditions: Nutrient Broth No. 2
Description: as §1, §2

[6] = tested on: Enterococcus faecalis ATCC 29212; assay: MIC in Nutrient Broth No. 2; assay type: cell-based; conditions: Nutrient Broth No. 2
Description: as §1, §2

[7] = tested on: Enterococcus faecium ATCC 19434; assay: MIC in Nutrient Broth No. 2; assay type: cell-based; conditions: Nutrient Broth No. 2
Description: as §1, §2

[8] = tested on: Escherichia coli; assay: MIC in Nutrient Broth No. 2; assay type: cell-based; conditions: 8 strains, Nutrient Broth No. 2
Description: as §1, §2

[9] = tested on: Hafnia alvei ATCC 13337; assay: MIC in Nutrient Broth No. 2; assay type: cell-based; conditions: Nutrient Broth No. 2
Description: as §1, §2

[10] = tested on: Proteus mirabilis ATCC 12453; assay: MIC in Nutrient Broth No. 2; assay type: cell-based; conditions: Nutrient Broth No. 2
Description: as §1, §2

[11] = tested on: Proteus vulgaris OCC 195; assay: MIC in Nutrient Broth No. 2; assay type: cell-based; conditions: Nutrient Broth No. 2
Description: as §1, §2

[12] = tested on: Ps. Aeruginosa ATCC 27853; assay: MIC in Nutrient Broth No. 2; assay type: cell-based; conditions: Nutrient Broth No. 2
Description: as §1, §2

[13] = tested on: Salmonella; assay: MIC in Nutrient Broth No. 2; assay type: cell-based; conditions: 11 strains, Nutrient Broth No. 2
Description: as §1, §2

[14] = tested on: Serratia marcescens OCC 217; assay: MIC in Nutrient Broth No. 2; assay type: cell-based; conditions: Nutrient Broth No. 2
Description: as §1, §2

[15] = tested on: S. saprophyticus; assay: MIC in Nutrient Agar; assay type: cell-based, Staphylococcus saprophyticus; conditions: Nutrient Agar containing 0.1 μg/ml of inducer; 37° C., 24 hours
Description: (§3) The triclosan-glycosides were added to Nutrient Agar (Oxoid CM0003; Thermofisher Scientific) and organisms were transferred onto the plates surface using a multi-point inoculation device (Oxoid Cathra, Thermofisher Scientific). The latter is essentially a metal plate containing a number of needles. Each needle tip (usually 36 per plate) dips into an organism suspension (in phosphate buffered saline; PBS) and the needles are then moved over the agar plate and lowered onto its surface. In this way the growth of colonies of up to 36 different organisms can be observed on one plate.
(§4) Nutrient Agar No. 2 was prepared according to the manufacturers instructions, autoclaved and cooled to 50° C. Test compounds were then added as filter sterilised solutions (50:50 deionised water:ethanol), to give final concentrations from 256 μg/ml to 0 μg/ml in doubling dilutions. […] The mixtures were swirled then four plates (25 ml molten agar) were poured for each concentration. Plates were dried in a laminar flow cabinet then inoculated with overnight cultures of organisms that had been decimally diluted twice in sterile saline solution (approximately 10^7 cfu/ml) using a multi-point inoculator. Plates were then incubated at 37° C. for 24 hours. MICs were determined as the concentration at which no growth was observed.

[16] = tested on: Str. viridans; assay: MIC in Nutrient Agar; assay type: cell-based, Streptococcus viridans; conditions: Nutrient Agar containing 0.1 μg/ml of inducer; 37° C., 24 hours
Description: as §3, §4

[17] = tested on: C. freundii; assay: MIC in Nutrient Agar; assay type: cell-based, Citrobacter freundii; conditions: Nutrient Agar containing 0.1 μg/ml of inducer; 37° C., 24 hours
Description: as §3, §4

[18] = tested on: E. coli; assay: MIC in Nutrient Agar; assay type: cell-based, Escherichia coli; conditions: 8 strains; Nutrient Agar containing 0.1 μg/ml of inducer; 37° C., 24 hours
Description: as §3, §4

[19] = tested on: E. hermanii; assay: MIC in Nutrient Agar; assay type: cell-based, Escherichia hermanii; conditions: Nutrient Agar containing 0.1 μg/ml of inducer; 37° C., 24 hours
Description: as §3, §4

Row | SMILES | MIC ([1]; with inducer 100 μg/ml) [µg/mL] | MIC ([1]; without inducer) [µg/mL] | MIC ([2]; with inducer 100 μg/ml) [µg/mL] | MIC ([2]; without inducer) [µg/mL] | MIC ([3]; with inducer 100 μg/ml) [µg/mL] | MIC ([3]; without inducer) [µg/mL] | MIC ([4]; with inducer 100 μg/ml) [µg/mL] | MIC ([4]; without inducer) [µg/mL] | MIC ([5]; with inducer 100 μg/ml) [µg/mL] | MIC ([5]; without inducer) [µg/mL] | MIC ([6]; with inducer 100 μg/ml) [µg/mL] | MIC ([6]; without inducer) [µg/mL] | MIC ([7]; with inducer 100 μg/ml) [µg/mL] | MIC ([7]; without inducer) [µg/mL] | MIC ([8]; with inducer 100 μg/ml) [µg/mL] | MIC ([8]; without inducer) [µg/mL] | MIC ([9]; with inducer 100 μg/ml) [µg/mL] | MIC ([9]; without inducer) [µg/mL] | MIC ([10]; with inducer 100 μg/ml) [µg/mL] | MIC ([10]; without inducer) [µg/mL] | other results
1 | OC[C@H]1O[C@H](Oc2cc(Cl)ccc2Oc2ccc(Cl)cc2Cl)[C@H](O)[C@@H](O)[C@H]1O [α-D-Galactoside, triclosan-α-D-galactopyranoside] | >256 | >256 | >256 | >256 | >256 | 256 (≈ 567 µM) | 128 (≈ 283 µM) | 64 (≈ 142 µM) | 64 (≈ 142 µM) | 128 (≈ 283 µM) | >256 | >256 | >256 | >256 | 8 to 64 | 16 to 64 | 8 (≈ 17.7 µM) | 16 (≈ 35.4 µM) | 32 (≈ 70.8 µM) | 32 (≈ 70.8 µM) | MIC ([11]; with inducer 100 μg/ml): 64 µg/mL (≈ 142 µM); MIC ([11]; without inducer): 64 µg/mL (≈ 142 µM); MIC ([12]; with inducer 100 μg/ml): >256 µg/mL; MIC ([12]; without inducer): >256 µg/mL; MIC ([13]; with inducer 100 μg/ml): 32 to 128 µg/mL; MIC ([13]; without inducer): 32 to 64 µg/mL; MIC ([14]; with inducer 100 μg/ml): >256 µg/mL; MIC ([14]; without inducer): >256 µg/mL; MIC [15]: 32 µg/mL (≈ 70.8 µM); MIC [16]: >256 µg/mL; MIC [17]: 64 µg/mL (≈ 142 µM); MIC [18]: 8 to 32 µg/mL; MIC [19]: 32 µg/mL (≈ 70.8 µM)
2 | OC[C@H]1O[C@H](Oc2cc(Cl)ccc2Oc2ccc(Cl)cc2Cl)[C@H](O)[C@@H](O)[C@@H]1O [α-D-Glucoside, triclosan-α-D-glucopyranoside] | 256 (≈ 567 µM) | 256 (≈ 567 µM) | 128 (≈ 283 µM) | 128 (≈ 283 µM) | 32 (≈ 70.8 µM) | 32 (≈ 70.8 µM) | 4 (≈ 8.86 µM) | 4 (≈ 8.86 µM) | 4 (≈ 8.86 µM) | 8 (≈ 17.7 µM) | 128 (≈ 283 µM) | 128 (≈ 283 µM) | 256 (≈ 567 µM) | 256 (≈ 567 µM) | 1 to 4 | 2 to 8 | 1 (≈ 2.21 µM) | 1 (≈ 2.21 µM) | 2 (≈ 4.43 µM) | 2 (≈ 4.43 µM) | MIC ([11]; with inducer 100 μg/ml): 4 µg/mL (≈ 8.86 µM); MIC ([11]; without inducer): 4 µg/mL (≈ 8.86 µM); MIC ([12]; with inducer 100 μg/ml): >256 µg/mL; MIC ([12]; without inducer): >256 µg/mL; MIC ([13]; with inducer 100 μg/ml): 1 to 4 µg/mL; MIC ([13]; without inducer): 2 to 8 µg/mL; MIC ([14]; with inducer 100 μg/ml): >256 µg/mL; MIC ([14]; without inducer): >256 µg/mL; MIC [15]: 4 µg/mL (≈ 8.86 µM); MIC [16]: 64 µg/mL (≈ 142 µM); MIC [17]: 4 µg/mL (≈ 8.86 µM); MIC [18]: 0.5 to 4 µg/mL; MIC [19]: 1 µg/mL (≈ 2.21 µM)
3 | O[C@@H]1[C@H](Oc2cc(Cl)ccc2Oc2ccc(Cl)cc2Cl)OC[C@@H](O)[C@H]1O [β-D-Arabinoside, triclosan-β-D-arabinopyranoside] | >256 | >256 | 128 (≈ 304 µM) | 128 (≈ 304 µM) | 128 (≈ 304 µM) | 128 (≈ 304 µM) | 64 (≈ 152 µM) | 64 (≈ 152 µM) | 64 (≈ 152 µM) | 128 (≈ 304 µM) | 256 (≈ 607 µM) | 256 (≈ 607 µM) | 256 (≈ 607 µM) | 256 (≈ 607 µM) | 4 to 32 | 8 to 32 | 4 (≈ 9.49 µM) | 4 (≈ 9.49 µM) | 16 (≈ 37.9 µM) | 32 (≈ 75.9 µM) | MIC ([11]; with inducer 100 μg/ml): 64 µg/mL (≈ 152 µM); MIC ([11]; without inducer): 128 µg/mL (≈ 304 µM); MIC ([12]; with inducer 100 μg/ml): >256 µg/mL; MIC ([12]; without inducer): >256 µg/mL; MIC ([13]; with inducer 100 μg/ml): 32 to 64 µg/mL; MIC ([13]; without inducer): 32 to 64 µg/mL; MIC ([14]; with inducer 100 μg/ml): >256 µg/mL; MIC ([14]; without inducer): >256 µg/mL; MIC [15]: 64 µg/mL (≈ 152 µM); MIC [16]: 128 µg/mL (≈ 304 µM); MIC [17]: 64 µg/mL (≈ 152 µM); MIC [18]: 8 to 32 µg/mL; MIC [19]: 32 µg/mL (≈ 75.9 µM)
4 | OC[C@H]1O[C@@H](Oc2cc(Cl)ccc2Oc2ccc(Cl)cc2Cl)[C@H](O)[C@@H](O)[C@@H]1O [β-D-Glucoside, triclosan-β-D-glucopyranoside] | 256 (≈ 567 µM) | >256 | 128 (≈ 283 µM) | 256 (≈ 567 µM) | 32 (≈ 70.8 µM) | 256 (≈ 567 µM) | 8 (≈ 17.7 µM) | 64 (≈ 142 µM) | 16 (≈ 35.4 µM) | 64 (≈ 142 µM) | 128 (≈ 283 µM) | 16 (≈ 35.4 µM) | 256 (≈ 567 µM) | >256 | 1 to 8 | 8 to 64 | 0.5 (≈ 1.11 µM) | 4 (≈ 8.86 µM) | 2 (≈ 4.43 µM) | 16 (≈ 35.4 µM) | MIC ([11]; with inducer 100 μg/ml): 8 µg/mL (≈ 17.7 µM); MIC ([11]; without inducer): 64 µg/mL (≈ 142 µM); MIC ([12]; with inducer 100 μg/ml): >256 µg/mL; MIC ([12]; without inducer): >256 µg/mL; MIC ([13]; with inducer 100 μg/ml): 2 to 8 µg/mL; MIC ([14]; with inducer 100 μg/ml): >256 µg/mL; MIC ([14]; without inducer): >256 µg/mL; MIC [15]: 32 µg/mL (≈ 70.8 µM); MIC [16]: 256 µg/mL (≈ 567 µM); MIC [17]: 64 µg/mL (≈ 142 µM); MIC [18]: 16 to 32 µg/mL; MIC [19]: 16 µg/mL (≈ 35.4 µM)
